Results: paper PMC8040265, “A polysaccharide utilization locus from the gut bacterium Dysgonomonas mossii encodes functionally distinct carbohydrate esterases” (The Journal of Biological Chemistry, 2021)

Molecular target: T1, DmCE1B_ct (Dysgonomonas mossii, UniProt F8X1N1)
T1 construct: gene HMPREF9456_02279; dimer; IMAC purified from E. coli BL21(DE3)
Experiment: X-ray crystal structure of soaked crystal, […] Å
Type: binding
Settings: crystal soak with saturating MFA, 0.1 M Tris pH 8, 25% w/v PEG 6000; one MFA at edge of active site groove, one at dimer interface

T1 sequence (F8X1N1 294-656): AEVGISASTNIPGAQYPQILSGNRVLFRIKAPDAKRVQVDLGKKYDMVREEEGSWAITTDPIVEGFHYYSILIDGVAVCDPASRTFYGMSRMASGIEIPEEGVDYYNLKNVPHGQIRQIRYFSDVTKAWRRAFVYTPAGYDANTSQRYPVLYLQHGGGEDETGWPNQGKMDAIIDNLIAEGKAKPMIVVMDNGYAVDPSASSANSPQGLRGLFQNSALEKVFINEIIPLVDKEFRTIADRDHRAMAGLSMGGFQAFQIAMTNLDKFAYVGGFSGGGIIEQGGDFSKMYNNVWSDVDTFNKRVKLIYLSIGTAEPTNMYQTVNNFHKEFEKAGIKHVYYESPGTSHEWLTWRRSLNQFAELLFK

Q: With COC(=O)/C=C/c1ccc(O)c(OC)c1 [MFA] as the compound, how does the “X-ray crystal structure of soaked crystal, 1.41 Å” value read?
A: Two MFA molecules were observed and modeled (Fig. S15A)
